Results from US7388025B2, “3-aryl-isoxazole-4-carbonyl-benzofuran derivatives” (Hoffman-La Roche Inc., priority 2005, dated 2008).

target: T1, human GABA A receptor α5β3γ2 (Homo sapiens, UniProt P18507+P31644); test: [3H]flumazenil competition binding, HEK293 cells expressing human GABA A α5β3γ2 receptors; settings: human α5β3γ2 in HEK293 (transiently transfected), 0.5 nM [3H]flumazenil, mean of two determinations; read-out: Ki[nM] hα5
T1 construct: expressed in transfected cells; host or cells: HEK293 cells, transiently transfected; membranes prepared from them
Experimental: Membrane Preparation and Binding Assay
The affinity of compounds at GABA A receptor subtypes was measured by competition for [3H]flumazenil (85 Ci/mmol; Roche) binding to HEK293 cells expressing rat (stably transfected) or human (transiently transfected) receptors of composition α1β3γ2, α2β3γ2, α3β3γ2 and α5β3γ2.
Cell pellets were suspended in Krebs-tris buffer (4.8 mM KCl, 1.2 mM CaCl2, 1.2 mM MgCl2, 120 mM NaCl, 15 mM Tris; pH 7.5; binding assay buffer), homogenized by polytron for ca. 20 sec on ice and centrifuged for 60 min at 4° C. (50000 g; Sorvall, rotor: SM24=20000 rpm). The cell pellets were resuspended in Krebs-tris buffer and homogenized by polytron for ca. 15 sec on ice. Protein was measured (Bradford method, Bio-Rad) and aliquots of 1 mL were prepared and stored at −80° C.
Radioligand binding assays were carried out in a volume of […] (96-well plates) which contained […] of cell memebranes, [3H]flumazenil at a concentration of 1 nM for α1, α2, α3 subunits and 0.5 nM for α5 subunits and the test compound in the range of […]. Nonspecific binding was defined by 10^−5 M diazepam and typically represented less than 5% of the total binding. Assays were incubated to equilibrium for 1 hour at 4° C. and harvested onto GF/C uni-filters (Packard) by filtration using a Packard harvester and washing with ice-cold wash buffer (50 mM Tris; pH 7.5). After drying, filter-retained radioactivity was detected by liquid scintillation counting. Ki values were calculated using Excel-Fit (Microsoft) and are the means of two determinations.

SMILES	Ki
Cc1onc(-c2ccccc2)c1C(=O)c1cc2ccccc2o1 [Example 1, Benzofuran-2-yl-(5-methyl-3-phenyl-isoxazol-4-yl)-methanone]	15.2 nM
Cc1onc(-c2ccccc2)c1C(=O)c1cc2cccc(F)c2o1 [Example 2, (7-Fluoro-benzofuran-2-yl)-(5-methyl-3-phenyl-isoxazol-4-yl)-methanone]	17.8 nM
Cc1onc(-c2ccccc2)c1C(=O)c1cc2cccc(Br)c2o1 [Example 3, (7-Bromo-benzofuran-2-yl)-(5-methyl-3-phenyl-isoxazol-4-yl)-methanone]	7.5 nM
Cc1onc(-c2ccccc2)c1C(=O)c1cc2cccc(O)c2o1 [Example 4, (7-Hydroxy-2-benzofuranyl)(5-methyl-3-phenyl-4-isoxazolyl)methanone]	6.9 nM
COc1cccc2cc(C(=O)c3c(-c4ccccc4)noc3C)oc12 [Example 5, (7-Methoxy-benzofuran-2-yl)-(5-methyl-3-phenyl-isoxazol-4-yl)-methanone]	4 nM
CCOc1cccc2cc(C(=O)c3c(-c4ccccc4)noc3C)oc12 [Example 6, (7-Ethoxy-benzofuran-2-yl)-(5-methyl-3-phenyl-isoxazol-4-yl)-methanone]	6.5 nM
Cc1onc(-c2ccccc2)c1C(=O)c1cc2cccc(OCc3ccccn3)c2o1 [Example 8, (5-Methyl-3-phenyl-isoxazol-4-yl)-[7-(pyridin-2-ylmethoxy)-benzofuran-2-yl]-methanone]	16.7 nM
Cc1onc(-c2ccccc2)c1C(=O)c1cc2cccc(OCc3cccnc3)c2o1 [Example 9, (5-Methyl-3-phenyl-isoxazol-4-yl)-[7-(pyridin-3-ylmethoxy)-benzofuran-2-yl]-methanone]	31.3 nM
Cc1onc(-c2ccccc2)c1C(=O)c1cc2cccc(OCc3ccncc3)c2o1 [Example 10, (5-Methyl-3-phenyl-isoxazol-4-yl)-[7-(pyridin-4-ylmethoxy)-benzofuran-2-yl]-methanone]	27.9 nM
Cc1onc(-c2ccccc2)c1C(=O)c1cc2cccc(OCC(=O)NC(C)C)c2o1 [Example 13, N-Isopropyl-2-[2-(5-methyl-3-phenyl-isoxazole-4-carbonyl)-benzofuran-7-yloxy]-acetamide]	1.8 nM
Cc1onc(-c2ccccc2)c1C(=O)c1cc2cccc(OCc3ncnn3C)c2o1 [Example 14, (5-Methyl-3-phenyl-isoxazol-4-yl)-[7-(2-methyl-2H-[1,2,4]triazol-3-ylmethoxy)-benzofuran-2-yl]-methanone]	13.8 nM
Cc1cc(COc2cccc3cc(C(=O)c4c(-c5ccccc5)noc4C)oc23)on1 [Example 15, [7-(3-Methyl-isoxazol-5-ylmethoxy)-benzofuran-2-yl]-(5-methyl-3-phenyl-isoxazol-4-yl)-methanone]	18.9 nM
Cc1onc(-c2ccccc2)c1C(=O)c1cc2ccc(O)cc2o1 [Example 16, (6-Hydroxy-benzofuran-2-yl)-(5-methyl-3-phenyl-isoxazol-4-yl)-methanone]	3.7 nM
COc1ccc2cc(C(=O)c3c(-c4ccccc4)noc3C)oc2c1 [Example 17, (6-Methoxy-benzofuran-2-yl)-(5-methyl-3-phenyl-isoxazol-4-yl)-methanone]	3.5 nM
Cc1onc(-c2ccccc2)c1C(=O)c1cc2cc(Cl)ccc2o1 [Example 19, (5-Chloro-benzofuran-2-yl)-(5-methyl-3-phenyl-isoxazol-4-yl)-methanone]	20 nM
Cc1onc(-c2ccccc2)c1C(=O)c1cc2cc(Br)ccc2o1 [Example 20, (5-Bromo-benzofuran-2-yl)-(5-methyl-3-phenyl-isoxazol-4-yl)-methanone]	41.6 nM
COc1ccc2oc(C(=O)c3c(-c4ccccc4)noc3C)cc2c1 [Example 22, (5-Methoxy-benzofuran-2-yl)-(5-methyl-3-phenyl-isoxazol-4-yl)-methanone]	4.6 nM
Cc1onc(-c2ccccc2)c1C(=O)c1cc2cc(OC(F)(F)F)ccc2o1 [Example 23, (5-Methyl-3-phenyl-isoxazol-4-yl)-(5-trifluoromethoxy-benzofuran-2-yl)-methanone]	10.1 nM
COc1cccc2oc(C(=O)c3c(-c4ccccc4)noc3C)cc12 [Example 25, (4-Methoxy-benzofuran-2-yl)-(5-methyl-3-phenyl-isoxazol-4-yl)-methanone]	10.6 nM

SMILES	Ki
COc1cc(OC)c2cc(C(=O)c3c(-c4ccccc4)noc3C)oc2c1 [Example 26, (4,6-Dimethoxy-benzofuran-2-yl)-(5-methyl-3-phenyl-isoxazol-4-yl)-methanone]	4.3 nM
Cc1onc(-c2ccccc2)c1C(=O)c1cc2c(ccc3ccccc32)o1 [Example 27, (5-Methyl-3-phenyl-isoxazol-4-yl)-naphtho[2,1-b]furan-2-yl-methanone]	13.7 nM
Cc1onc(-c2ccc(Br)cc2)c1C(=O)c1cc2ccccc2o1 [Example 28, Benzofuran-2-yl-[3-(4-bromo-phenyl)-5-methyl-isoxazol-4-yl]-methanone]	8.1 nM
Cc1onc(-c2ccc(Br)cc2)c1C(=O)c1cc2cccc(F)c2o1 [Example 29, [3-(4-Bromo-phenyl)-5-methyl-isoxazol-4-yl]-(7-fluoro-benzofuran-2-yl)-methanone]	11.7 nM
Cc1onc(-c2ccc(Br)cc2)c1C(=O)c1cc2cccc(O)c2o1 [Example 30, [3-(4-Bromo-phenyl)-5-methyl-isoxazol-4-yl]-(7-hydroxy-benzofuran-2-yl)-methanone]	17.4 nM
COc1cccc2cc(C(=O)c3c(-c4ccc(Br)cc4)noc3C)oc12 [Example 31, [3-(4-Bromo-phenyl)-5-methyl-isoxazol-4-yl]-(7-methoxy-benzofuran-2-yl)-methanone]	3.7 nM
CCOc1cccc2cc(C(=O)c3c(-c4ccc(Br)cc4)noc3C)oc12 [Example 32, [3-(4-Bromo-phenyl)-5-methyl-isoxazol-4-yl]-(7-ethoxy-benzofuran-2-yl)-methanone]	9.4 nM
Cc1onc(-c2ccc(Br)cc2)c1C(=O)c1cc2cccc(OC(C)C)c2o1 [Example 33, [3-(4-Bromo-phenyl)-5-methyl-isoxazol-4-yl]-(7-isopropoxy-benzofuran-2-yl)-methanone]	32.9 nM
Cc1onc(-c2ccc(Br)cc2)c1C(=O)c1cc2cccc(OCc3ccccn3)c2o1 [Example 34, [3-(4-Bromo-phenyl)-5-methyl-isoxazol-4-yl]-[7-(pyridin-2-ylmethoxy)-benzofuran-2-yl]-methanone]	36.3 nM
Cc1onc(-c2ccc(Br)cc2)c1C(=O)c1cc2cccc(OCc3cccnc3)c2o1 [Example 35, [3-(4-Bromo-phenyl)-5-methyl-isoxazol-4-yl]-[7-(pyridin-3-ylmethoxy)-benzofuran-2-yl]-methanone]	36.4 nM
Cc1onc(-c2ccc(Br)cc2)c1C(=O)c1cc2cccc(OCc3ccncc3)c2o1 [Example 36, [3-(4-Bromo-phenyl)-5-methyl-isoxazol-4-yl]-[7-(pyridin-4-ylmethoxy)-benzofuran-2-yl]-methanone]	35.9 nM
Cc1onc(-c2ccc(Br)cc2)c1C(=O)c1cc2cccc(OCC(=O)NC(C)C)c2o1 [Example 37, 2-{2-[3-(4-Bromo-phenyl)-5-methyl-isoxazole-4-carbonyl]-benzofuran-7-yloxy}-N-isopropyl-acetamide]	2.3 nM
Cc1onc(-c2ccc(Br)cc2)c1C(=O)c1cc2cccc(OCc3ncnn3C)c2o1 [Example 38, [3-(4-Bromo-phenyl)-5-methyl-isoxazol-4-yl]-[7-(2-methyl-2H-[1,2,4]triazol-3-ylmethoxy)-benzofuran-2-yl]-methanone]	15.1 nM
Cc1cc(COc2cccc3cc(C(=O)c4c(-c5ccc(Br)cc5)noc4C)oc23)on1 [Example 39, [3-(4-Bromo-phenyl)-5-methyl-isoxazol-4-yl]-[7-(3-methyl-isoxazol-5-ylmethoxy)-benzofuran-2-yl]-methanone]	63.8 nM
Cc1onc(-c2ccc(Br)cc2)c1C(=O)c1cc2ccc(O)cc2o1 [Example 40, [3-(4-Bromo-phenyl)-5-methyl-isoxazol-4-yl]-(6-hydroxy-benzofuran-2-yl)-methanone]	9.3 nM
COc1ccc2cc(C(=O)c3c(-c4ccc(Br)cc4)noc3C)oc2c1 [Example 41, [3-(4-Bromo-phenyl)-5-methyl-isoxazol-4-yl]-(6-methoxy-benzofuran-2-yl)-methanone]	3.1 nM
Cc1onc(-c2ccc(Br)cc2)c1C(=O)c1cc2cc(O)ccc2o1 [Example 42, [3-(4-Bromo-phenyl)-5-methyl-isoxazol-4-yl]-(5-hydroxy-benzofuran-2-yl)-methanone]	4.6 nM
COc1ccc2oc(C(=O)c3c(-c4ccc(Br)cc4)noc3C)cc2c1 [Example 43, [3-(4-Bromo-phenyl)-5-methyl-isoxazol-4-yl]-(5-methoxy-benzofuran-2-yl)-methanone]	2.9 nM
COc1cccc2oc(C(=O)c3c(-c4ccc(Br)cc4)noc3C)cc12 [Example 44, [3-(4-Bromo-phenyl)-5-methyl-isoxazol-4-yl]-(4-methoxy-benzofuran-2-yl)-methanone]	4.8 nM
